Results from article PMC9354638, “Targeting p21-activated kinase 4 (PAK4) with pyrazolo[3,4-d]pyrimidine derivative SPA7012 attenuates hepatic ischaemia-reperfusion injury in mice” (Journal of Enzyme Inhibition and Medicinal Chemistry, 2022).
“Also recorded” adds a separate entry of the source.

Test system: C57BL/6 male mice with hepatic I/R injury
Experiment: Model of partial hepatic I/R injury in mice
Format: in vivo, mouse
Method: Pathogen-free 8 to 10-week old C57BL/6 male mice (Orient Bio, Seoul, Korea) were kept under a 12-h light/dark cycle with controlled humidity of 50% at 22 °C, and had free access to food and water. Hepatic I/R injury was created using the following method.[15] Mice were anaesthetised with ketamine (100 mg/kg) and xylazine (10 mg/kg) by intraperitoneal injection. A midline incision was performed, and an atraumatic clip was placed across the portal vein, hepatic artery, and bile duct just above the right branch. Blood flow was interrupted to the left lateral and median lobes, which represent approximately 70% of the total blood supply to the liver. The liver was kept moist with a gauze soaked in saline, and body temperature was maintained at 37 °C with a warm blanket throughout ischaemia. After 60 min of partial hepatic ischaemia, the clip was removed to initiate reperfusion. The sham mice underwent the same operation without vascular occlusion. After the desired time period of reperfusion, the mice were euthanised by exsanguination under anaesthesia and serum samples were collected. The left lateral and median lobes of the liver were collected and stored at −80 °C until further analysis, or were immediately fixed in 10% formalin. All animal experiments were performed in accordance with the Guide for the Care and Use of Laboratory Animals published by the US National Institutes of Health (NIH Publication No. 85–23, revised 2011). The study protocol was approved by the Institutional Animal Care and Use Committee of Jeonbuk National University (permit number: JBNU-2019–00122).
Alanine aminotransferase (ALT) and aspartate aminotransferase (AST) in serum (Asan Pharm, Seoul, Korea), glutathione (GSH, Arbour Assays, Ann Arbour, MI, USA), malondialdehyde (MDA, ab118970, Abcam, Cambridge, UK) in liver tissues, and lactate dehydrogenase (LDH, Biovision, Milpitas, CA, USA) in culture medium were analysed using specific kits. Serum levels of IL-1β, IL-6, TNF-α, and CCL-2 were detected using ELISA kits (all from Invitrogen).
Total RNA was extracted from frozen liver tissues or primary hepatocytes using TRIzol reagent (Invitrogen). RNA was treated with isopropanol, dried using 70% ethanol, and dissolved in diethyl pyrocarbonate-treated distilled water. First-strand cDNA was generated using the random hexamer primer provided in the first-strand cDNA synthesis kit (Applied Biosystems, Foster City, CA, USA). Specific primers were designed using PrimerBank (https://pga.mgh.harvard.edu/primerbank, Table 1). qPCR reactions were performed in a final volume of 10μ L containing 10 ng reverse-transcribed total RNA, 200 nM forward and reverse primers, and PCR master mixture. qPCR was performed in 384-well plates using an ABI Prism™ 7900HT Sequence Detection System (Applied Biosystems).
Nuclear and cytoplasmic fractions were prepared using the NE-PER Nuclear and Cytoplasmic Extraction kit (Thermo Fisher Scientific, Waltham, MA, USA). Tissue homogenates or cell lysates (15 μg) were separated by 6–14% SDS-PAGE and transferred to PVDF membranes. After blocking with 5% skim milk, blots were probed with primary antibodies against: PAK4 (G222), p-PAK4 (S474), p-IKKβ (S176/180), p-IκBα (S32), p-p65 (S536), cleaved caspase-3 (Asp175), Bax (Cell Signalling Technology, Beverly, MA, USA), GAPDH (A531), lamin B1(L75), Bcl2(P65), NQO1 (F252) (Bioworld Technology, St Louis Park, MN, USA), NF-κB p65 (C-20), IKBα (H-4), IKKβ (10A9B6) (Santa Cruz Biotechnology, Dallas, TX, USA), Nrf2 (Proteintech, Rosemont, IL, USA), HO-1 (Enzo Life Sciences, Farmingdale, New York, USA), and p-Thr (Merck KGaA, Darmstadt, Germany). For co-immunoprecipitations, 600 μg protein was incubated with anti-Nrf2 antibodies (Proteintech, Sankt Leon-Rot, Germany) overnight at 4 °C followed by protein G agarose for 2 h at 4 °C. Blots were probed with antibodies against PAK4, Nrf2, or p-Thr. Immunoreactive bands were detected with a Las-4000 imager (GE Healthcare Life Science, Pittsburgh, PA, USA). […]

[1] = 50 mg/kg intraperitoneal before and during I/R, 1 h ischaemia, 6 h or 24 h reperfusion, vs I/R group

## Cc1nn(-c2cccc(C#CC3(O)CCCCC3)c2)c2ncnc(N)c12 [Compound 14b, 3-(4-Amino-3-methylpyrazolo[3,4-d]pyrimidin-1-yl)phenylethynylcyclohexan-1-ol]
[1]
  Serum ALT level: significantly decreased
  Serum AST level: significantly decreased
50 mg/kg, 24 h after reperfusion, listed as SPA7012
  Inflammatory cell infiltration (F4/80-positive macrophages, Ly6G-positive neutrophils) in liver: decreased; also recorded: drastic reduction
50 mg/kg, I/R injured mice
  Cytokine production (TNF-α, IL-1β, IL-6, CCL-2; serum protein and liver mRNA): decreased
50 mg/kg, Western blotting
  Phosphorylation levels of IKKβ and p65 in liver: substantially decreased
  Protein levels of IκBα in liver: increased
50 mg/kg, Western blotting of nuclear extracts, listed as SPA7012
  Nuclear level of Nrf2 in I/R injured liver tissues: considerably increased
50 mg/kg, vs I/R group
  4-HNE-positive cells in liver tissues: significantly lower
  Area of necrosis in liver (H&E): significantly smaller
  Hepatic levels of GSH: significantly higher
  MDA level: significantly lower
  TUNEL-positive apoptotic cells in liver tissues: significant reduction
Following SPA7012 treatment, data not shown
  Total- and phospho-protein levels of PPARγ, PTEN, Akt, and GSK-3β: no changes
